Experimental data from patent publication US20230085307A1, “PYRIDAZINONE COMPOUND AND HERBICIDE” (NISSAN CHEMICAL CORPORATION, priority 2019, published 2023).

Columns and labels:
[1] = test system: lambsquarters; experiment: Test Example 5: herbicidal effect by foliage application, plastic box (Table 20, symbol O); format: in vivo, lambsquarters (Chenopodium album); details: foliage application, 320 g/ha, evaluated three weeks after application
Procedure, shortened: (§1)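 Plants were sown into sterilized diluvial soil under about 1.5 cm cover and kept in a greenhouse at 25° C. to 30° C. Fourteen days on, foliage received an even spray of the diluted emulsion. Herbicidal or crop effect was judged three weeks afterwards.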

[2] = test system: rice flat sedge; experiment: Test Example 3: herbicidal effect by foliage application, Wagner pot (Table 18, symbol E); format: in vivo, rice flat sedge (Cyperus iria); details: amount of applied herbicide 320 g/ha
Procedure, shortened: (§2)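 Plants were sown in alluvial soil held under 0.1–0.5 cm standing water and grown 14 days in a greenhouse at 25–30 °C. An emulsifiable formulation, water-diluted to the set dose, was then sprayed onto the foliage, and effects were scored three weeks later using previously defined criteria.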

[3] = test system: velvetleaf; experiment: Test Example 4: herbicidal effect by soil treatment (Table 19, symbol M); format: in vivo, velvetleaf (Abutilon theophrasti); details: amount of applied herbicide 320 g/ha
Procedure, shortened: (§3)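 Pre-emergence style soil spray: seeds under ~1.5 cm sterilized diluvial soil received a uniform coat of emulsion diluted to the predetermined herbicide amount. Greenhouse 25–30° C; readout at week three on previously defined criteria.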

[4] = test system: false cleavers; experiment: Test Example 4: herbicidal effect by soil treatment (Table 19, symbol Q); format: in vivo, false cleavers (Galium spurium); details: amount of applied herbicide 320 g/ha
Procedure, shortened: as §3

[5] = test system: persian speedwell; experiment: Test Example 5: herbicidal effect by foliage application, plastic box (Table 20, symbol R); format: in vivo, Persian speedwell (Veronica persica); details: foliage application, 320 g/ha, evaluated three weeks after application
Procedure, shortened: as §1

[6] = test system: green foxtail; experiment: Test Example 4: herbicidal effect by soil treatment (Table 19, symbol G); format: in vivo, green foxtail (Setaria viridis); details: amount of applied herbicide 320 g/ha
Procedure, shortened: as §3

[7] = test system: barnyard grass; experiment: Test Example 4: herbicidal effect by soil treatment (Table 19, symbol H); format: in vivo, barnyard grass (Echinochloa crus-galli); details: amount of applied herbicide 320 g/ha
Procedure, shortened: as §3

[8] = test system: Italian ryegrass; experiment: Test Example 4: herbicidal effect by soil treatment (Table 19, symbol K); format: in vivo, Italian ryegrass (Lolium multiflorum); details: amount of applied herbicide 320 g/ha
Procedure, shortened: as §3

[9] = test system: redroot pigweed; experiment: Test Example 5: herbicidal effect by foliage application, plastic box (Table 20, symbol N); format: in vivo, redroot pigweed (Amaranthus retroflexus); details: foliage application, 320 g/ha, evaluated three weeks after application
Procedure, shortened: as §1

[10] = test system: southern crabgrass; experiment: Test Example 5: herbicidal effect by foliage application, plastic box (Table 20, symbol F); format: in vivo, southern crabgrass (Digitaria ciliaris); details: foliage application, 320 g/ha, evaluated three weeks after application
Procedure, shortened: as §1

[11] = test system: windgrass; experiment: Test Example 4: herbicidal effect by soil treatment (Table 19, symbol L); format: in vivo, windgrass (Apera spica-venti); details: amount of applied herbicide 320 g/ha
Procedure, shortened: as §3

[12] = test system: green foxtail; experiment: Test Example 5: herbicidal effect by foliage application, plastic box (Table 20, symbol G); format: in vivo, green foxtail (Setaria viridis); details: foliage application, 320 g/ha, evaluated three weeks after application
Procedure, shortened: as §1

[13] = test system: velvetleaf; experiment: Test Example 5: herbicidal effect by foliage application, plastic box (Table 20, symbol M); format: in vivo, velvetleaf (Abutilon theophrasti); details: foliage application, 320 g/ha, evaluated three weeks after application
Procedure, shortened: as §1

[14] = test system: barnyard grass; experiment: Test Example 3: herbicidal effect by foliage application, Wagner pot (Table 18, symbol H); format: in vivo, barnyard grass (Echinochloa crus-galli); details: amount of applied herbicide 320 g/ha
Procedure, shortened: as §2

[15] = test system: Chinese sprangletop; experiment: Test Example 3: herbicidal effect by foliage application, Wagner pot (Table 18, symbol D); format: in vivo, chinese sprangletop (Leptochloa chinensis); details: amount of applied herbicide 320 g/ha
Procedure, shortened: as §2

[16] = test system: barnyard grass; experiment: Test Example 5: herbicidal effect by foliage application, plastic box (Table 20, symbol H); format: in vivo, barnyard grass (Echinochloa crus-galli); details: foliage application, 320 g/ha, evaluated three weeks after application
Procedure, shortened: as §1

[17] = test system: blackgrass; experiment: Test Example 4: herbicidal effect by soil treatment (Table 19, symbol J); format: in vivo, blackgrass (Alopecurus myosuroides); details: amount of applied herbicide 320 g/ha
Procedure, shortened: as §3

[18] = test system: wild oat; experiment: Test Example 5: herbicidal effect by foliage application, plastic box (Table 20, symbol I); format: in vivo, wild oat (Avena fatua); details: foliage application, 320 g/ha, evaluated three weeks after application
Procedure, shortened: as §1

[19] = test system: southern crabgrass; experiment: Test Example 4: herbicidal effect by soil treatment (Table 19, symbol F); format: in vivo, southern crabgrass (Digitaria ciliaris); details: amount of applied herbicide 320 g/ha
Procedure, shortened: as §3

[20] = test system: redroot pigweed; experiment: Test Example 4: herbicidal effect by soil treatment (Table 19, symbol N); format: in vivo, redroot pigweed (Amaranthus retroflexus); details: amount of applied herbicide 320 g/ha
Procedure, shortened: as §3

[21] = test system: chickweed; experiment: Test Example 4: herbicidal effect by soil treatment (Table 19, symbol P); format: in vivo, common chickweed (Stellaria media); details: amount of applied herbicide 320 g/ha
Procedure, shortened: as §3

[22] = test system: wild oat; experiment: Test Example 4: herbicidal effect by soil treatment (Table 19, symbol I); format: in vivo, wild oat (Avena fatua); details: amount of applied herbicide 320 g/ha
Procedure, shortened: as §3

[23] = test system: chickweed; experiment: Test Example 5: herbicidal effect by foliage application, plastic box (Table 20, symbol P); format: in vivo, common chickweed (Stellaria media); details: foliage application, 320 g/ha, evaluated three weeks after application
Procedure, shortened: as §1

[24] = test system: blackgrass; experiment: Test Example 5: herbicidal effect by foliage application, plastic box (Table 20, symbol J); format: in vivo, blackgrass (Alopecurus myosuroides); details: foliage application, 320 g/ha, evaluated three weeks after application
Procedure, shortened: as §1

[25] = test system: windgrass; experiment: Test Example 5: herbicidal effect by foliage application, plastic box (Table 20, symbol L); format: in vivo, windgrass (Apera spica-venti); details: foliage application, 320 g/ha, evaluated three weeks after application
Procedure, shortened: as §1

[26] = test system: persian speedwell; experiment: Test Example 4: herbicidal effect by soil treatment (Table 19, symbol R); format: in vivo, Persian speedwell (Veronica persica); details: amount of applied herbicide 320 g/ha
Procedure, shortened: as §3

[27] = test system: Italian ryegrass; experiment: Test Example 5: herbicidal effect by foliage application, plastic box (Table 20, symbol K); format: in vivo, Italian ryegrass (Lolium multiflorum); details: foliage application, 320 g/ha, evaluated three weeks after application
Procedure, shortened: as §1

[28] = test system: lambsquarters; experiment: Test Example 4: herbicidal effect by soil treatment (Table 19, symbol O); format: in vivo, lambsquarters (Chenopodium album); details: amount of applied herbicide 320 g/ha
Procedure, shortened: as §3

Row | SMILES | herbicidal effect on E: rice flat sedge [2] | M: velvetleaf, herbicidal effect rating [3] | Q: false cleavers, herbicidal effect rating [4] | G: green foxtail, herbicidal effect rating [6] | H: barnyard grass, herbicidal effect rating [7] | K: Italian ryegrass, herbicidal effect rating [8] | L: windgrass, herbicidal effect rating [11] | herbicidal effect on H: barnyard grass [14] | herbicidal effect on D: Chinese sprangletop [15] | J: blackgrass, herbicidal effect rating [17] | F: southern crabgrass, herbicidal effect rating [19] | N: redroot pigweed, herbicidal effect rating [20] | P: chickweed, herbicidal effect rating [21] | I: wild oat, herbicidal effect rating [22] | R: persian speedwell, herbicidal effect rating [26] | O: lambsquarters, herbicidal effect rating [28] | further results
1 | Cc1ccc2sc(-c3ccccc3)c(-c3c(O)c(C)nn(C)c3=O)c2c1 [2-132] | 5 (Herbicidal rate of 90% or more (almost completely withered)) | 0 (Herbicidal rate of 5% or less (almost no effect)) | 0 (Herbicidal rate of 5% or less (almost no effect)) | 3 (Herbicidal rate of 40% or more and less than 70%) | 3 (Herbicidal rate of 40% or more and less than 70%) | 2 (Herbicidal rate of 20% or more and less than 40%) | 0 (Herbicidal rate of 5% or less (almost no effect)) | 0 (Herbicidal rate of 5% or less (almost no effect)) | 0 (Herbicidal rate of 5% or less (almost no effect)) | 0 (Herbicidal rate of 5% or less (almost no effect)) | 1 (Herbicidal rate of 5% or more and less than 20%) | 0 (Herbicidal rate of 5% or less (almost no effect)) | 4 (Herbicidal rate of 70% or more and less than 90%) | 0 (Herbicidal rate of 5% or less (almost no effect)) | 3 (Herbicidal rate of 40% or more and less than 70%) | 5 (Herbicidal rate of 90% or more (almost completely withered)) | herbicidal effect on O: lambsquarters [1]: 4 (Herbicidal rate of 70% or more and less than 90%); herbicidal effect on R: persian speedwell [5]: 5 (Herbicidal rate of 90% or more (almost completely withered)); herbicidal effect on N: redroot pigweed [9]: 5 (Herbicidal rate of 90% or more (almost completely withered)); herbicidal effect on F: southern crabgrass [10]: 1 (Herbicidal rate of 5% or more and less than 20%); herbicidal effect on G: green foxtail [12]: 3 (Herbicidal rate of 40% or more and less than 70%); herbicidal effect on M: velvetleaf [13]: 3 (Herbicidal rate of 40% or more and less than 70%); herbicidal effect on H: barnyard grass [16]: 0 (Herbicidal rate of 5% or less (almost no effect)); herbicidal effect on I: wild oat [18]: 0 (Herbicidal rate of 5% or less (almost no effect)); herbicidal effect on P: chickweed [23]: 5 (Herbicidal rate of 90% or more (almost completely withered)); herbicidal effect on J: blackgrass [24]: 2 (Herbicidal rate of 20% or more and less than 40%); herbicidal effect on L: windgrass [25]: 0 (Herbicidal rate of 5% or less (almost no effect)); herbicidal effect on K: Italian ryegrass [27]: 5 (Herbicidal rate of 90% or more (almost completely withered))
2 | Cc1ccc2sc(-c3ccc([N+](=O)[O-])cc3)c(-c3c(O)c(C)nn(C)c3=O)c2c1 [2-144] | 3 (Herbicidal rate of 40% or more and less than 70%) | 0 (Herbicidal rate of 5% or less (almost no effect)) | 0 (Herbicidal rate of 5% or less (almost no effect)) | 0 (Herbicidal rate of 5% or less (almost no effect)) | 0 (Herbicidal rate of 5% or less (almost no effect)) | 0 (Herbicidal rate of 5% or less (almost no effect)) | 0 (Herbicidal rate of 5% or less (almost no effect)) | 2 (Herbicidal rate of 20% or more and less than 40%) | 0 (Herbicidal rate of 5% or less (almost no effect)) | 0 (Herbicidal rate of 5% or less (almost no effect)) | 2 (Herbicidal rate of 20% or more and less than 40%) | 3 (Herbicidal rate of 40% or more and less than 70%) | 1 (Herbicidal rate of 5% or more and less than 20%) | 0 (Herbicidal rate of 5% or less (almost no effect)) | 2 (Herbicidal rate of 20% or more and less than 40%) | 3 (Herbicidal rate of 40% or more and less than 70%) | herbicidal effect on O: lambsquarters (criteria 0-5) [1]: 3 (Herbicidal rate of 40% or more and less than 70%); herbicidal effect on R: persian speedwell (criteria 0-5) [5]: 5 (Herbicidal rate of 90% or more (almost completely withered)); herbicidal effect on N: redroot pigweed (criteria 0-5) [9]: 5 (Herbicidal rate of 90% or more (almost completely withered)); herbicidal effect on F: southern crabgrass (criteria 0-5) [10]: 0 (Herbicidal rate of 5% or less (almost no effect)); herbicidal effect on G: green foxtail (criteria 0-5) [12]: 0 (Herbicidal rate of 5% or less (almost no effect)); herbicidal effect on M: velvetleaf (criteria 0-5) [13]: 2 (Herbicidal rate of 20% or more and less than 40%); herbicidal effect on H: barnyard grass (criteria 0-5) [16]: 0 (Herbicidal rate of 5% or less (almost no effect)); herbicidal effect on I: wild oat (criteria 0-5) [18]: 0 (Herbicidal rate of 5% or less (almost no effect)); herbicidal effect on P: chickweed (criteria 0-5) [23]: 4 (Herbicidal rate of 70% or more and less than 90%); herbicidal effect on J: blackgrass (criteria 0-5) [24]: 0 (Herbicidal rate of 5% or less (almost no effect)); herbicidal effect on L: windgrass (criteria 0-5) [25]: 0 (Herbicidal rate of 5% or less (almost no effect)); herbicidal effect on K: Italian ryegrass (criteria 0-5) [27]: 4 (Herbicidal rate of 70% or more and less than 90%)
